Measured values as given in patent publication US20090274636A1, “TOOTH ENAMEL DISSOLUTION INHIBITOR” (priority 2006, published 2009).

Assay: Phosphorus dissolution from sintered hydroxyapatite (tooth enamel model) in 2 wt. % citric acid, ICP-AES
Conditions: for Phosphorus Dissolution Rate (%): 2 wt. % citric acid, pH 2.5, shaken two days, negative control = 100%
Method: In order to evaluate the inhibitory activity of subject substances on the dissolution (decalcification) of tooth enamel, the following tests were conducted using sintered hydroxyapatite as a tooth enamel model.
Thus, 10 ml of test solution was prepared. The test solution (10 ml) and a piece (720 mg, 10×10×2 mm) of sintered hydroxyapatite (APP-100; PENTAX Corp.) were put into a 15-ml polypropylene tube and the tube was sealed. The tube was shaken horizontally at about 120 times per minute for two days. After the shaking, the amount of phosphorus dissolved from the sintered hydroxyapatite was measured in each test solution by high-frequency inductively coupled plasma atomic emission spectrophotometry (ICP-AES). Another test was conducted as a negative control in the same manner as above, using a 2 wt. % citric acid solution (adjusted to pH 2.5 with sodium hydrate) as a test solution. Still another test was conducted as a positive control in the same manner as above, using CaCl2 (10 mM) as a subject substance. Taking the amount of phosphorus dissolved in the negative control as 100%, the phosphorus dissolution rate (%) was calculated for each subject substance.

SMILES	Phosphorus Dissolution Rate (%) (subject substance 10 mM)	Phosphorus Dissolution Rate (%) (subject substance 0.2 wt. %)	Phosphorus Dissolution Rate (%) (subject substance 0.5 wt. %)	inhibitory effect on phosphorus dissolution from the sintered hydroxyapatite due to citric acid (in words) (summary of Table 1 results)
[Ca+2].[Cl-].[Cl-] [CaCl2, reference compound]	75.0%	–	–	–
OC[C@H]1O[C@@H]2O[C@H]3[C@H](O)[C@@H](O)[C@@H](O[C@H]4[C@H](O)[C@@H](O)[C@@H](O[C@H]5[C@H](O)[C@@H](O)[C@@H](O[C@H]6[C@H](O)[C@@H](O)[C@@H](O[C@H]7[C@H](O)[C@@H](O)[C@@H](O[C@H]8[C@H](O)[C@@H](O)[C@@H](O[C@H]1[C@H](O)[C@H]2O)O[C@@H]8CO)O[C@@H]7CO)O[C@@H]6CO)O[C@@H]5CO)O[C@@H]4CO)O[C@@H]3CO [β-cyclodextrin]	–	98.6%	79.7%	effectively suppressed phosphorus dissolution
